Reference: the NIST ThermoML archive (doi:10.1016/j.jct.2016.03.034)
Numbers after ± are expanded uncertainties.

Test: xn = mol fraction of the nth substance listed
Details: 100 kPa, Liquid; for viscosity: Capillary tube (Ostwald / Ubbelohde) method; for mass density: Vibrating tube method

O=C1CCCO1 [γ-butyrolactone] + CCn1cc[n+](C)c1.O=S(=O)([N-]S(=O)(=O)C(F)(F)F)C(F)(F)F
Details	mass density [kg/m3]	viscosity [mPa·s]
293.15 K, x2 = 0	1129.49 ± 9	1.86 ± 0.08
293.15 K, x2 = 0.05	1189.18 ± 9.7	2.57 ± 0.11
293.15 K, x2 = 0.0995	–	3.12 ± 0.13
293.15 K, x2 = 0.0996	1236.95 ± 10	–
293.15 K, x2 = 0.1502	1277.22 ± 10	3.83 ± 0.16
293.15 K, x2 = 0.2006	1310.83 ± 11	4.63 ± 0.19
293.15 K, x2 = 0.3	–	6.64 ± 0.27
293.15 K, x2 = 0.3001	1363.28 ± 11	–
293.15 K, x2 = 0.4	–	9.2 ± 0.38
293.15 K, x2 = 0.4021	1403.82 ± 11	–
293.15 K, x2 = 0.4899	–	11.95 ± 0.49
293.15 K, x2 = 0.4992	1434.01 ± 11	–
293.15 K, x2 = 0.6103	1461.49 ± 12	16.41 ± 0.67
293.15 K, x2 = 0.6912	1478 ± 12	–
293.15 K, x2 = 0.6995	–	20.33 ± 0.83
293.15 K, x2 = 0.7817	1493.78 ± 12	–
293.15 K, x2 = 0.7927	–	24.88 ± 1
293.15 K, x2 = 0.8991	1510.97 ± 12	30.67 ± 1.2
293.15 K, x2 = 0.9532	–	34.26 ± 1.4
298.15 K, x2 = 0	1124.59 ± 9	1.71 ± 0.07
298.15 K, x2 = 0.05	1184.22 ± 9.6	2.41 ± 0.1
298.15 K, x2 = 0.0995	–	2.94 ± 0.12
298.15 K, x2 = 0.0996	1231.94 ± 9.9	–
298.15 K, x2 = 0.1502	1272.16 ± 10	3.61 ± 0.15
298.15 K, x2 = 0.2006	1305.75 ± 10	4.35 ± 0.18
298.15 K, x2 = 0.3	–	6.16 ± 0.25
298.15 K, x2 = 0.3001	1358.16 ± 11	–
298.15 K, x2 = 0.4	–	8.37 ± 0.34
298.15 K, x2 = 0.4021	1398.7 ± 11	–
298.15 K, x2 = 0.4899	–	10.72 ± 0.44
298.15 K, x2 = 0.4992	1428.88 ± 11	–
298.15 K, x2 = 0.6103	1456.36 ± 12	14.47 ± 0.59
298.15 K, x2 = 0.6912	1472.86 ± 12	–
298.15 K, x2 = 0.6995	–	17.71 ± 0.72
298.15 K, x2 = 0.7817	1488.64 ± 12	–
298.15 K, x2 = 0.7927	–	21.48 ± 0.87
298.15 K, x2 = 0.8991	1505.84 ± 12	26.32 ± 1.1
298.15 K, x2 = 0.9532	–	29.01 ± 1.2
303.15 K, x2 = 0	1119.68 ± 9	1.58 ± 0.06
303.15 K, x2 = 0.05	1179.23 ± 9.6	2.24 ± 0.09
303.15 K, x2 = 0.0995	–	2.71 ± 0.11
303.15 K, x2 = 0.0996	1226.88 ± 9.9	–
303.15 K, x2 = 0.1502	1267.09 ± 10	3.3 ± 0.14
303.15 K, x2 = 0.2006	1300.66 ± 10	3.97 ± 0.16
303.15 K, x2 = 0.3	–	5.57 ± 0.23
303.15 K, x2 = 0.3001	1353.03 ± 11	–
303.15 K, x2 = 0.4	–	7.49 ± 0.31
303.15 K, x2 = 0.4021	1393.55 ± 11	–
303.15 K, x2 = 0.4899	–	9.49 ± 0.39
303.15 K, x2 = 0.4992	1423.73 ± 11	–
303.15 K, x2 = 0.6103	1451.19 ± 12	12.66 ± 0.51
303.15 K, x2 = 0.6912	1467.67 ± 12	–
303.15 K, x2 = 0.6995	–	15.38 ± 0.63
303.15 K, x2 = 0.7817	1483.46 ± 12	–
303.15 K, x2 = 0.7927	–	18.53 ± 0.75
303.15 K, x2 = 0.8991	1500.66 ± 12	22.48 ± 0.91
303.15 K, x2 = 0.9532	–	24.66 ± 1
308.15 K, x2 = 0	1114.78 ± 8.9	1.47 ± 0.06
308.15 K, x2 = 0.05	1174.26 ± 9.5	2.07 ± 0.09
308.15 K, x2 = 0.0995	–	2.48 ± 0.1
308.15 K, x2 = 0.0996	1221.85 ± 9.9	–
308.15 K, x2 = 0.1502	1262.03 ± 10	3.03 ± 0.12
308.15 K, x2 = 0.2006	1295.56 ± 10	3.66 ± 0.15
308.15 K, x2 = 0.3	–	5.09 ± 0.21
308.15 K, x2 = 0.3001	1347.9 ± 11	–
308.15 K, x2 = 0.4	–	6.72 ± 0.27
308.15 K, x2 = 0.4021	1388.4 ± 11	–
308.15 K, x2 = 0.4899	–	8.39 ± 0.34
308.15 K, x2 = 0.4992	1418.56 ± 11	–
308.15 K, x2 = 0.6103	1446.01 ± 12	11.08 ± 0.45
308.15 K, x2 = 0.6912	1462.49 ± 12	–
308.15 K, x2 = 0.6995	–	13.34 ± 0.54
308.15 K, x2 = 0.7817	1478.28 ± 12	–
308.15 K, x2 = 0.7927	–	15.98 ± 0.65
308.15 K, x2 = 0.8991	1495.47 ± 12	19.26 ± 0.78
308.15 K, x2 = 0.9532	–	21.15 ± 0.86
313.15 K, x2 = 0	1109.87 ± 8.9	1.37 ± 0.06
313.15 K, x2 = 0.05	1169.29 ± 9.5	1.92 ± 0.08
313.15 K, x2 = 0.0995	–	2.32 ± 0.1
313.15 K, x2 = 0.0996	1216.89 ± 9.8	–
313.15 K, x2 = 0.1502	1257.03 ± 10	2.81 ± 0.12
313.15 K, x2 = 0.2006	1290.56 ± 10	3.37 ± 0.14
313.15 K, x2 = 0.3	–	4.63 ± 0.19
313.15 K, x2 = 0.3001	1342.87 ± 11	–
313.15 K, x2 = 0.4	–	6.09 ± 0.25
313.15 K, x2 = 0.4021	1383.33 ± 11	–
313.15 K, x2 = 0.4899	–	7.55 ± 0.31
313.15 K, x2 = 0.4992	1413.46 ± 11	–
313.15 K, x2 = 0.6103	1440.89 ± 12	9.84 ± 0.4
313.15 K, x2 = 0.6912	1457.37 ± 12	–
313.15 K, x2 = 0.6995	–	11.77 ± 0.48
313.15 K, x2 = 0.7817	1473.14 ± 12	–
313.15 K, x2 = 0.7927	–	13.93 ± 0.57
313.15 K, x2 = 0.8991	1490.3 ± 12	16.67 ± 0.68
313.15 K, x2 = 0.9532	–	18.26 ± 0.74
318.15 K, x2 = 0	1104.96 ± 8.8	1.28 ± 0.05
318.15 K, x2 = 0.05	1164.33 ± 9.5	1.76 ± 0.07
318.15 K, x2 = 0.0995	–	2.12 ± 0.09
318.15 K, x2 = 0.0996	1211.89 ± 9.8	–
318.15 K, x2 = 0.1502	1252 ± 10	2.57 ± 0.11
318.15 K, x2 = 0.2006	1285.51 ± 10	3.07 ± 0.13
318.15 K, x2 = 0.3	–	4.15 ± 0.17
318.15 K, x2 = 0.3001	1337.8 ± 11	–
318.15 K, x2 = 0.4	–	5.46 ± 0.22
318.15 K, x2 = 0.4021	1378.25 ± 11	–
318.15 K, x2 = 0.4899	–	6.65 ± 0.27
318.15 K, x2 = 0.4992	1408.36 ± 11	–
318.15 K, x2 = 0.6103	1435.77 ± 12	8.6 ± 0.35
318.15 K, x2 = 0.6912	1452.23 ± 12	–
318.15 K, x2 = 0.6995	–	10.2 ± 0.41
318.15 K, x2 = 0.7817	1467.99 ± 12	–
318.15 K, x2 = 0.7927	–	12.07 ± 0.49
318.15 K, x2 = 0.8991	1485.13 ± 12	14.42 ± 0.59
318.15 K, x2 = 0.9532	–	15.79 ± 0.64
323.15 K, x2 = 0	1100.05 ± 8.8	1.2 ± 0.05
323.15 K, x2 = 0.05	1159.37 ± 9.4	1.66 ± 0.07
323.15 K, x2 = 0.0995	–	2.02 ± 0.08
323.15 K, x2 = 0.0996	1206.9 ± 9.8	–
323.15 K, x2 = 0.1502	1247.02 ± 10	2.42 ± 0.1
323.15 K, x2 = 0.2006	1280.5 ± 10	2.89 ± 0.12
323.15 K, x2 = 0.3	–	3.89 ± 0.16
323.15 K, x2 = 0.3001	1332.77 ± 11	–
323.15 K, x2 = 0.4	–	4.97 ± 0.2
323.15 K, x2 = 0.4021	1373.17 ± 11	–
323.15 K, x2 = 0.4899	–	6.15 ± 0.25
323.15 K, x2 = 0.4992	1403.26 ± 11	–
323.15 K, x2 = 0.6103	1430.64 ± 11	7.81 ± 0.32
323.15 K, x2 = 0.6912	1447.09 ± 12	–
323.15 K, x2 = 0.6995	–	9.19 ± 0.37
323.15 K, x2 = 0.7817	1462.82 ± 12	–
323.15 K, x2 = 0.7927	–	10.76 ± 0.44
323.15 K, x2 = 0.8991	1479.92 ± 12	12.78 ± 0.52
323.15 K, x2 = 0.9532	–	13.93 ± 0.57
